Results reported in patent US7312248B2, “Control of parasites in animals by the use of novel trifluoromethanesulfonanilide oxime ether derivatives” (Schering-Plough Animal Health Corporation, priority 2004, dated 2007).
Read-outs that look alike come from different tables or passages of the source.

Tested on: cat flea (Ctenocephalides felis)
Assay: whole plant or invertebrate
Format: in vivo
Details: for mortality at 1.26 µg/cm2, 1.26 µg/cm2 / mortality at 1.26 µg/cm2: Ctenocephalides felis
Experimental: b) Ctenocephalides felis Adulticide Assay: C. felis Single Dose Screen
Mortality of fleas was the primary endpoint in the assay. Fleas were considered dead if they didn't move or were on their sides and unable to walk or right themselves. […] The concentration chosen (1.26 μg/cm^2) was higher than that known to kill 90% of cat fleas (LC90) using the reference compound, permethrin.
The test species was the cat flea (Ctenocephalides felis). The strain used was obtained from external suppliers as pupae and held in the laboratory under testing conditions until the adults had emerged. Fifteen (15) fleas were used in a minimum of four replicates against a single concentration level (approximately 60 fleas). The insects were selected to be in the adult life stage, aged between 3 and 7 days post emergence.
The compounds to be tested were supplied as solids and were prepared in acetone as described below prior to testing. Samples were stored in a refrigerator (5±1° C.) unless otherwise specified.
During the mortality testing, the temperature was maintained at 25±1° C. Humidity was maintained at 75±5%. The base (area=159 mm^2) of a 100 mL glass Erlenmeyer (conical) flask provided the treatment surface. Flasks were pretreated with Coatasil™ glass treatment to maximise bio-availability of test compounds by preventing them from binding to glass the surface. The base of the 100 mL Erlenmeyer flask was treated with 0.5 mL of test sample in acetone and gently swirled. This volume was sufficient to cover the base of the flask. Flasks were left to dry for 24 hours before flea exposure.
Adult cat fleas were placed into a sorting chamber, which allowed fleas to jump into the Erlenmeyer flasks. Fifteen (15) adult cat fleas were collected in each flask. The top of the flasks were then covered in Parafilm™ and small holes were made to allow gas exchange. A 0.5 mL volume of acetone as a solvent control was applied to the base of an Erlenmeyer flask and the testing proceeded in the same manner described above. Cat fleas in the treatment containers were held under testing conditions for 8, 24 and/or 48 hours. Mortality was recorded at 8, 24, 8 and 24, or 24 and 48 hours. Pooled 8, 24, 8 and 24, and 24 and 48 hour mortality data were converted to percentages and are summarized by Tables 14, 14A and 14B, below.

[1] = 24 h, read-out: C. felis Mortality (%) 24 h, 24 h, Laboratory 1 A data
[2] = 8 h, read-out: C. felis Mortality (%) 8 h, 8 h, Laboratory 2 B data
[3] = 24 h, read-out: C. felis Mortality (%) 24 h, 24 h, Laboratory 2 B data
[4] = 48 h, read-out: C. felis Mortality (%) 48 h, 48 h, Laboratory 2 B data
[5] = 24 h, read-out: Ctenocephalides felis Mortality (%) 24 h
[6] = 48 h, read-out: Ctenocephalides felis Mortality (%) 48 h
[7] = 8 h, read-out: Ctenocephalides felis Mortality (%) 8 h

CCO/N=C(\C)c1cc(Br)ccc1NS(=O)(=O)C(F)(F)F [Compound 53]
mortality at 1.26 µg/cm2, 1.26 µg/cm2 [1]: 100%

CCC/C(=N\Oc1ccc(F)cc1)c1cc(Cl)ccc1NS(=O)(=O)C(F)(F)F [Compound 168]
mortality at 1.26 µg/cm2, 1.26 µg/cm2 [1]: 36%

C/C(=N\OCC#N)c1cc(Cl)ccc1NS(=O)(=O)C(F)(F)F [Compound 160]
mortality at 1.26 µg/cm2, 1.26 µg/cm2 [1]: 42%

CC/C(=N\OC(C)c1ccc(Cl)cc1Cl)c1cc(Cl)ccc1NS(=O)(=O)C(F)(F)F (stereo not shown) [Compound 259]
mortality at 1.26 µg/cm2, 1.26 µg/cm2 [2]: 0%
mortality at 1.26 µg/cm2, 1.26 µg/cm2 [3]: 71%

O=S(=O)(Nc1ccc(Cl)cc1/C(=N/Oc1ccc(Cl)cc1)C1CCCCC1)C(F)(F)F [Compound 167]
mortality at 1.26 µg/cm2, 1.26 µg/cm2 [1]: 3%

CCO/N=C(\C)c1ccc(F)cc1NS(=O)(=O)C(F)(F)F [Compound 51]
mortality at 1.26 µg/cm2, 1.26 µg/cm2 [1]: 100%

O=S(=O)(Nc1ccc(Cl)cc1/C(=N/Oc1ccc(Cl)cc1)c1ccccc1)C(F)(F)F [Compound 164, N-{4-chloro-2-[(4-chlorophenoxyimino)phenylmethyl]phenyl}trifluoromethanesulfonamide]
mortality at 1.26 µg/cm2, 1.26 µg/cm2 [1]: 19%

C/C(=N\OC1CCCCC1)c1ccc(C(F)(F)F)cc1NS(=O)(=O)C(F)(F)F [Compound 237]
mortality at 1.26 µg/cm2, 1.26 µg/cm2 [3]: 4%
mortality at 1.26 µg/cm2, 1.26 µg/cm2 [4]: 36%

CC/C(=N\Oc1ccc(C)cc1)c1cc(Cl)ccc1NS(=O)(=O)C(F)(F)F [Compound 142]
mortality at 1.26 µg/cm2, 1.26 µg/cm2 [1]: 72%

CC/C(=N\Oc1ccccc1C)c1cc(Cl)ccc1NS(=O)(=O)C(F)(F)F [Compound 150]
mortality at 1.26 µg/cm2, 1.26 µg/cm2 [1]: 48%

CCOCN(c1ccc(Cl)cc1/C(C)=N/Oc1ccc(F)cc1)S(=O)(=O)C(F)(F)F [Compound 299]
mortality at 1.26 µg/cm2 [5]: 0%
mortality at 1.26 µg/cm2 [6]: 56%

C/C(=N\OCCC(C)C)c1cc(Cl)ccc1NS(=O)(=O)C(F)(F)F [Compound 246]
mortality at 1.26 µg/cm2, 1.26 µg/cm2 [3]: 98%
mortality at 1.26 µg/cm2, 1.26 µg/cm2 [4]: 100%

C/C(=N\OCC(C)C)c1ccc(C(F)(F)F)cc1NS(=O)(=O)C(F)(F)F [Compound 240]
mortality at 1.26 µg/cm2, 1.26 µg/cm2 [3]: 64%
mortality at 1.26 µg/cm2, 1.26 µg/cm2 [4]: 98%

CCCC(=O)OCN(c1ccc(Cl)cc1/C(C)=N/Oc1ccc(F)cc1)S(=O)(=O)C(F)(F)F [Compound 312]
mortality at 1.26 µg/cm2 [7]: 11%
mortality at 1.26 µg/cm2 [5]: 89%

C/C(=N\Oc1ccccc1C)c1cc(Cl)ccc1NS(=O)(=O)C(F)(F)F [Compound 149]
mortality at 1.26 µg/cm2, 1.26 µg/cm2 [1]: 17%

CSCO/N=C(\C)c1cccc(C)c1NS(=O)(=O)C(F)(F)F [Compound 54]
mortality at 1.26 µg/cm2, 1.26 µg/cm2 [1]: 93%

O=S(=O)(Nc1ccc(Cl)cc1-c1noc2c1CCCC2)C(F)(F)F [Compound 294]
mortality at 1.26 µg/cm2 [7]: 3%
mortality at 1.26 µg/cm2 [5]: 40%

C/C(=N\OCC1CCCCC1)c1cc(Cl)ccc1NS(=O)(=O)C(F)(F)F [Compound 173]
mortality at 1.26 µg/cm2, 1.26 µg/cm2 [1]: 96%

CC/C(=N\Oc1ccc(F)c(F)c1)c1cc(Cl)ccc1NS(=O)(=O)C(F)(F)F [Compound 148]
mortality at 1.26 µg/cm2, 1.26 µg/cm2 [1]: 38%

C/C(=N\Oc1ccc(F)c(F)c1)c1cc(Cl)ccc1NS(=O)(=O)C(F)(F)F [Compound 147]
mortality at 1.26 µg/cm2, 1.26 µg/cm2 [1]: 4%

O=S(=O)(Nc1ccc(Cl)cc1-c1cc(C2CCCCC2)on1)C(F)(F)F [Compound 292]
mortality at 1.26 µg/cm2 [7]: 15%
mortality at 1.26 µg/cm2 [5]: 92%

CO/N=C(\c1ccccc1)c1ccccc1NS(=O)(=O)C(F)(F)F [Compound 30]
mortality at 1.26 µg/cm2, 1.26 µg/cm2 [1]: 62%

O=S(=O)(Nc1ccc(Cl)cc1/C(=N/OC1CCCC1)c1ccccc1)C(F)(F)F [Compound 162]
mortality at 1.26 µg/cm2, 1.26 µg/cm2 [1]: 14%

CC/C(=N\OC(C)C1CC1)c1cc(Cl)ccc1NS(=O)(=O)C(F)(F)F (stereo not shown) [Compound 254]
mortality at 1.26 µg/cm2, 1.26 µg/cm2 [3]: 84%
mortality at 1.26 µg/cm2, 1.26 µg/cm2 [4]: 100%

C/C(=N\OCc1ccc(Cl)cc1)c1cc(Cl)ccc1N(C)S(=O)(=O)C(F)(F)F [Compound 296]
mortality at 1.26 µg/cm2 [5]: 0%
mortality at 1.26 µg/cm2 [6]: 19%

C/C(=N\Oc1ccc(F)cc1)c1cc(Cl)ccc1N(COC(=O)C(C)(C)C)S(=O)(=O)C(F)(F)F [Compound 305]
mortality at 1.26 µg/cm2 [5]: 1%
mortality at 1.26 µg/cm2 [6]: 21%

CC/C(=N\OC)c1cc(Cl)ccc1NS(=O)(=O)C(F)(F)F [Compound 34]
mortality at 1.26 µg/cm2, 1.26 µg/cm2 [1]: 100%

O=S(=O)(Nc1ccc(Cl)cc1/C(=N/OCC1CCCCC1)c1ccccc1)C(F)(F)F [Compound 180]
mortality at 1.26 µg/cm2, 1.26 µg/cm2 [1]: 8%

C/C(=N\OC1C=CCCC1)c1ccc(C(F)(F)F)cc1NS(=O)(=O)C(F)(F)F (stereo not shown) [Compound 238]
mortality at 1.26 µg/cm2, 1.26 µg/cm2 [3]: 61%
mortality at 1.26 µg/cm2, 1.26 µg/cm2 [4]: 84%

CO/N=C(\c1ccccc1)c1cc(Cl)ccc1NS(=O)(=O)C(F)(F)F [Compound 232]
C. felis Mortality (%) 24 h (24 h, Laboratory 2 B data): 96^B %
mortality at 1.26 µg/cm2, 1.26 µg/cm2 [4]: 100%

CCO/N=C(\C)c1cccc(OC)c1NS(=O)(=O)C(F)(F)F [Compound 41]
mortality at 1.26 µg/cm2, 1.26 µg/cm2 [1]: 45%

C/C(=N\OCC#N)c1ccccc1NS(=O)(=O)C(F)(F)F [Compound 27]
mortality at 1.26 µg/cm2, 1.26 µg/cm2 [1]: 95%

CCO/N=C(\c1ccccc1)c1ccccc1NS(=O)(=O)C(F)(F)F [Compound 31]
mortality at 1.26 µg/cm2, 1.26 µg/cm2 [1]: 74%

C/C(=N\OC1CCCC1)c1ccc(C(F)(F)F)cc1NS(=O)(=O)C(F)(F)F [Compound 239]
mortality at 1.26 µg/cm2, 1.26 µg/cm2 [3]: 86%
mortality at 1.26 µg/cm2, 1.26 µg/cm2 [4]: 100%

CC/C(=N\OCC1CCCCC1)c1cc(Cl)ccc1N(COC(=O)C(C)(C)C)S(=O)(=O)C(F)(F)F [Compound 304]
mortality at 1.26 µg/cm2 [5]: 0%
mortality at 1.26 µg/cm2 [6]: 81%

C/C(=N\OCC=C(Cl)Cl)c1ccccc1NS(=O)(=O)C(F)(F)F [Compound 25]
mortality at 1.26 µg/cm2, 1.26 µg/cm2 [1]: 100%

C/C(=N\OC(C)c1ccc(Cl)cc1Cl)c1cc(Cl)ccc1NS(=O)(=O)C(F)(F)F (stereo not shown) [Compound 258]
mortality at 1.26 µg/cm2, 1.26 µg/cm2 [2]: 8%
mortality at 1.26 µg/cm2, 1.26 µg/cm2 [3]: 88%

CC/C(=N\OC(CC)c1ccccc1)c1cc(Cl)ccc1NS(=O)(=O)C(F)(F)F (stereo not shown) [Compound 256]
mortality at 1.26 µg/cm2, 1.26 µg/cm2 [2]: 0%
mortality at 1.26 µg/cm2, 1.26 µg/cm2 [3]: 84%

CC/C(=N\Oc1ccc(OC(F)(F)F)cc1)c1cc(Cl)ccc1NS(=O)(=O)C(F)(F)F [Compound 152]
mortality at 1.26 µg/cm2, 1.26 µg/cm2 [1]: 61%

CCCO/N=C(\c1ccccc1)c1cc(Cl)ccc1NS(=O)(=O)C(F)(F)F [Compound 251]
C. felis Mortality (%) 24 h (24 h, Laboratory 2 B data): 32^B %
mortality at 1.26 µg/cm2, 1.26 µg/cm2 [4]: 100%

C/C(=N\OC(C)C)c1cccc(C)c1NS(=O)(=O)C(F)(F)F [Compound 57]
mortality at 1.26 µg/cm2, 1.26 µg/cm2 [1]: 77%

CC/C(=N\OCC1CCCCC1)c1cc(Cl)ccc1N(C(C)=O)S(=O)(=O)C(F)(F)F [Compound 311]
mortality at 1.26 µg/cm2 [7]: 14%
mortality at 1.26 µg/cm2 [5]: 76%

CC/C(=N\Oc1ccc(F)c(Cl)c1)c1cc(Cl)ccc1NS(=O)(=O)C(F)(F)F [Compound 146]
mortality at 1.26 µg/cm2, 1.26 µg/cm2 [1]: 11%

C/C(=N\Oc1ccc(C)cc1)c1cc(Cl)ccc1NS(=O)(=O)C(F)(F)F [Compound 141]
mortality at 1.26 µg/cm2, 1.26 µg/cm2 [1]: 41%

CO/N=C(\C)c1cc(Cl)ccc1NS(=O)(=O)C(F)(F)F [Compound 35]
mortality at 1.26 µg/cm2, 1.26 µg/cm2 [1]: 100%

CCOC(=O)N(c1ccc(Cl)cc1/C(CC)=N/OCc1ccc(Cl)cc1)S(=O)(=O)C(F)(F)F [Compound 306]
mortality at 1.26 µg/cm2 (24 h, single concentration 1.26 μg/cm^2 on treated glass, adult fleas, Laboratory 2 B data, read-out: Ctenocephalides felis Mortality (%) 24 h): 0%
mortality at 1.26 µg/cm2 (48 h, single concentration 1.26 μg/cm^2 on treated glass, adult fleas, Laboratory 2 B data, read-out: Ctenocephalides felis Mortality (%) 48 h): 48%

CC/C(=N\OCC#N)c1cc(Cl)ccc1NS(=O)(=O)C(F)(F)F [Compound 153]
mortality at 1.26 µg/cm2, 1.26 µg/cm2 [1]: 77%

CSCO/N=C(\C)c1ccccc1NS(=O)(=O)C(F)(F)F [Compound 56]
mortality at 1.26 µg/cm2, 1.26 µg/cm2 [1]: 100%

CCC/C(=N\OC1CCCCC1)c1cc(Cl)ccc1NS(=O)(=O)C(F)(F)F [Compound 192]
mortality at 1.26 µg/cm2, 1.26 µg/cm2 [2]: 18%
mortality at 1.26 µg/cm2, 1.26 µg/cm2 [3]: 43%

O=S(=O)(Nc1ccc(Cl)cc1/C(=N/Oc1ccc(F)cc1)C1CCCCC1)C(F)(F)F [Compound 169, N-{4-chloro-2-[(4-fluorophenoxyimino)cyclohexylmethyl]phenyl}trifluoromethanesulfonamide]
mortality at 1.26 µg/cm2, 1.26 µg/cm2 [1]: 9%

CCC/C(=N\Oc1ccc(Cl)cc1)c1cc(Cl)ccc1NS(=O)(=O)C(F)(F)F [Compound 166, N-{4-chloro-2-[1-(4-chlorophenoxyimino)butyl]phenyl}trifluoromethanesulfonamide]
mortality at 1.26 µg/cm2, 1.26 µg/cm2 [1]: 17%

CSCO/N=C(\C)c1cc(Cl)ccc1NS(=O)(=O)C(F)(F)F [Compound 124]
mortality at 1.26 µg/cm2, 1.26 µg/cm2 [1]: 100%
